Assay results as given in the METLIN SMRT retention time set (Domingo-Almenara et al. 2019).

assay: gradient 5% acetonitrile 3 min, to 50% in 2 min, to 85% in 15 min, held 3 min, 100 µL/min; conditions: column: Zorbax Extend-C18 2.1 x 50 mm; eluents: water / acetonitrile, 0.1% formic acid
In short: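 Over 3 months, pure standards in mixtures of ~100 molecules were run by HPLC coupled to a quadrupole time-of-flight mass spectrometer in positive and negative ionization mode. The column was a Zorbax Extend-C18 (2.1 × 50 mm, 1.8 μm) at 100 μL/min, eluted with water and acetonitrile each holding 0.1% formic acid, with 40 μL dead and 900 μL dwell volumes. Retention time was determined from adduct peaks chosen by software and checked manually.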

Point of comparison: COCCNC(=O)N1CCC(OC2CCN(Cc3ccccc3)CC2)CC1, RP-LC retention time 571 s. Against it:
- COc1ccc(NC(=O)c2cnc(N3CCN(C)CC3)nc2N)cc1 — higher, 578 s
- COc1ccc(OCc2noc(CNC(=O)Nc3ccccc3F)n2)cc1 — higher, 804 s
- Cc1cc2c(c(=O)n(-c3ccc(F)cc3)c(=O)n2CC(=O)Nc2cc(F)ccc2F)n1C — higher, 875 s
- COc1ccc(NC(=O)Cc2csc3nc(-c4cccc(Br)c4)cn23)cc1 — higher, 937 s
- CCc1nnc(-c2ccc3ccn(CC(=O)N4CCC5(CC4)OCCO5)c3c2)o1 — higher, 722 s
- CCCCOc1ccc(-c2cc3c4nnc(CCC(=O)N5CCN(C(C)C)CC5)n4ccn3n2)cc1 — higher, 692 s
- Cc1nc(-c2ccc(OC3CCN(C(=O)CCc4nc5ccccc5[nH]4)C3)cc2)no1 (configuration not stated) — higher, 643 s
- COC(=O)c1ncn2c1C(=O)N(Cc1ccc(Cl)cc1)C(C)(C(=O)NC1CCCC1)C2 (configuration not stated) — higher, 758 s
- CCCn1cc(CCNS(=O)(=O)c2ccc(C)cc2)c2cccnc21 — higher, 841 s
- CCOC(=O)Cn1c(C2CC(=O)N(c3cc(Cl)ccc3OC)C2)nc2ccccc21 (configuration not stated) — higher, 778 s
- COc1ccc(-c2noc(C3CC(=O)N(c4ccc(F)cc4)C3)n2)c(OC)c1 (configuration not stated) — higher, 850 s
- CCOC(=O)C1CCC(CNC(=O)Nc2ccc(-c3nc(-c4ccccc4)co3)cc2)CC1 (configuration not stated) — higher, 1100 s
- COc1ccc(-c2nnc(-c3ccc(C)c(S(=O)(=O)N(C)C)c3)o2)cc1 — higher, 966 s
- COc1ccc(Cc2nc(-c3ccc4nnc(C)n4c3)no2)cc1OC — higher, 724 s
- COc1nc2ccccc2nc1N1CCCC(C(=O)N2CCN(c3ccccc3F)CC2)C1 (configuration not stated) — higher, 1240 s
- CCn1nc(-c2ccc(C)c(S(=O)(=O)N3CCC(C(N)=O)CC3)c2)c2c(c1=O)CCCC2 — higher, 718 s
- CC1CCc2c(sc(NC(=O)Cc3ccc(Cl)s3)c2C(N)=O)C1 (configuration not stated) — higher, 1000 s
- Cc1ccc(C(CC(=O)NCCCN2CCCC2)N2Cc3ccccc3C2=O)cc1 (configuration not stated) — higher, 639 s
- Cc1ccc(CNC(=O)c2cn3c(n2)COCC3)cc1C — higher, 704 s
- CC(NC(=O)c1ccco1)c1nc2ccccc2n1CC(=O)N1CCCC1 (configuration not stated) — higher, 614 s
- CC(C)c1ccc(NC(=O)C2CC(=O)N(CCc3c[nH]c4ccc(Cl)cc34)C2)cc1 (configuration not stated) — higher, 983 s
- CC1CCN(C(=O)CN2C(=O)C3CCCCN3c3ccc(C(=O)N4CCCC4)cc32)CC1 (configuration not stated) — higher, 815 s
- CCn1cc(CC(=O)Nc2ccc(OC)c(OC)c2)c2cccnc21 — higher, 664 s
- Cc1csc(-c2cc(S(=O)(=O)NCCC3=CCCCC3)cn2CC(=O)N2CCCC2)n1 — higher, 1030 s
- CC(C)C(=O)N1CCN(c2nc(CN3CCOCC3)cs2)CC1 — lower, 569 s
- O=C(Cc1csc(SCC(=O)c2cccs2)n1)NCCc1c[nH]c2ccccc12 — higher, 806 s
- Cc1ccc(CN2CC(=O)N(c3cccc(C)c3)[C@@H]3CS(=O)(=O)C[C@@H]32)cc1 — higher, 855 s
- O=C(CN1C(=O)C(C(=O)N2CCCCCC2)Sc2ccccc21)NC1CCCCC1 (configuration not stated) — higher, 1090 s
- CCc1nnc(-c2ccc3ccn(CC(=O)NCc4ccccn4)c3c2)o1 — higher, 629 s
- CCC(C)NC(=O)c1ccc2c(c1)N(C(=O)NC)CC2 (configuration not stated) — higher, 652 s
- c1coc(CN2CC(Oc3ccc(-c4noc(C5CC5)n4)cc3)C2)c1 — higher, 684 s
- CCOc1ccc(-c2noc(Cn3c(=O)n(-c4ccccc4)c(=O)c4sccc43)n2)cc1OC — higher, 910 s
- CN(C)c1ccc(C(=O)N2CCN(c3cc(-c4cccs4)[nH]n3)CC2)cc1 — higher, 714 s
- Cc1[nH]nc(-c2c(C)sc(C)c2S(=O)(=O)Nc2cccc(Br)c2)c1C — higher, 1130 s
- COC(=O)C1=CN(c2ccc(OC)c(Cl)c2)c2ccccc2S1(=O)=O — higher, 856 s
- CCOC(=O)c1cn[nH]c1S(=O)(=O)N1CCN(c2ccccn2)CC1 — higher, 582 s
- CCc1ccc(OCC(=O)Nc2cnn(C)c(=O)c2N2CCOCC2)cc1 — higher, 889 s
- CCc1ccc(CN2CCn3c(nn(C)c3=O)C2)cc1 — higher, 689 s
- Cc1cccc(NC(=O)Cn2ncc3c(c2=O)N(C2CC2)C(=O)CS3)c1C — higher, 714 s
- Cc1cccc(CNc2nnc(-c3nc(C4CC4)no3)c3ccccc23)c1 — higher, 938 s
- O=C(NCCCN1CCCCC1)c1cc(=O)n2c(nc3ccccc32)s1 — higher, 621 s
- CN(C)CCn1nnc2cc(-c3noc(Cc4ccc(F)cc4)n3)ccc21 — higher, 714 s
- CCN1c2ccccc2C(=O)NC12CCN(C(=O)Nc1ccc(OC)cc1)CC2 — higher, 735 s
- COC(=O)c1ccc2c(=O)n(-c3ccc(OC)cc3)c(N3CCSC3)nc2c1 — higher, 1050 s
- CC(C)NC(=O)c1ccc(OCC2CCCN(C(=O)c3ccc(F)c(Cl)c3)C2)cc1 (configuration not stated) — higher, 915 s
- Cc1cc(C)c(S(=O)(=O)Nc2cc(-c3cn4ccccc4n3)ccc2C)cc1C — higher, 737 s
- O=C(CSc1nnc2c3cc(-c4ccc(F)cc4)nn3ccn12)Nc1ccccc1Br — higher, 935 s
- O=C(Nc1ccccc1Cl)N1CC(F)(F)C[C@H]1CN1CCCC1 — higher, 627 s
- Cc1ccc(CNS(=O)(=O)c2ccc(-c3c(C)noc3C)cc2)o1 — higher, 893 s
- CN(Cc1ccccc1)C(=O)c1cccc(NC(=O)[C@H]2[C@@H]3C[C@@H]4[C@H]2C(=O)O[C@@H]4C3)c1 — higher, 766 s
- Cc1oc(C2CCN(S(=O)(=O)c3ccc(C(F)(F)F)cc3)CC2)nc1C(=O)N(C)C — higher, 900 s
- CC(=O)c1cccc(NC(=O)C2Oc3ccccc3NC2=O)c1 (configuration not stated) — higher, 702 s
- O=C(NCc1n[nH]c(=O)c2ccccc12)C1CC(=O)N(c2ccccc2)C1 (configuration not stated) — higher, 594 s
- Cc1cccc(NS(=O)(=O)c2cc3n(c2)CCN(C(C)C)C3=O)c1C — higher, 816 s
- COCc1cc(=O)n(CC(=O)Nc2cccc(OC)c2)c(N2CCOCC2)n1 — higher, 779 s
- O=C(NCC(O)Cc1ccccc1)c1cccc(Cl)c1 (configuration not stated) — higher, 757 s
- O=C(CNC(=O)c1ccccc1)NC(C(=O)N1CCCc2ccccc21)c1ccccc1 (configuration not stated) — higher, 816 s
- COc1ccc(-c2cc3nn(CC(=O)Nc4ccc(C)c(C)c4)c(=O)n3c(C)n2)cc1 — higher, 980 s
- O=C(NCC12CCC=C1N(CC1CC1)C(=O)CC2)Nc1cccc(F)c1 (configuration not stated) — higher, 876 s
- Cn1c(=O)c2cc(C(=O)Nc3ccc(Cl)cc3)cnc2n(-c2ccccc2)c1=O — higher, 962 s
- CCN1C(=O)c2cccnc2Sc2cc(NC(=O)c3ccc(C)cc3C)ccc21 — higher, 918 s
- CCOc1ccc(OCC)c(NC(=O)c2cn3c4c(ccc(Cl)c4c2=O)OCC3)c1 — higher, 1100 s
- COc1ccc(-c2nc(Cn3c(=O)c4c(C)cc(C)nc4n(C)c3=O)c(C)o2)cc1OC — higher, 1100 s
- N#Cc1ccc(S(=O)(=O)N2CCCOCCNC(=O)[C@@H]3CCC[C@@H]32)cc1 — higher, 714 s
- CCCN1CCN(CCCNC(=O)CSc2nc3ccccc3n(C)c2=O)CC1 — lower, 564 s
- O=C1CCCc2cc(S(=O)(=O)NCC3CCN(Cc4cccc(F)c4)CC3)ccc2N1 — higher, 606 s
- CN1CCCCCCN(C(=O)C2(c3ccccc3)CC2)[C@H]2CCC[C@H]2C1=O — higher, 958 s
- Cc1cc(C)c(S(=O)(=O)N2CC(=O)N(CC3CC3)C3(CCOCC3)C2)c(C)c1 — higher, 944 s
- Cc1cc(=O)n(CC(=O)Nc2ccccc2)c(N2CCc3ccccc3C2)n1 — higher, 765 s
- Cc1nnc(N2CCCC(C(=O)N3CCN(c4ccccc4)CC3)C2)c2nn(-c3ccccc3)c(C)c12 (configuration not stated) — higher, 759 s
- O=C(Cc1ccc(Cl)cc1)N1CCN(S(=O)(=O)c2cc3c4c(c2)CCC(=O)N4CCC3)CC1 — higher, 842 s
- CCOc1ccc(S(=O)(=O)Nc2ccc3c(c2)CCC(=O)N3CC(C)C)cc1 — higher, 901 s
- Cc1ccc2c(c1)N(Cc1ccc(Cl)cc1)N=C(C(=O)N1CCOCC1)S2(=O)=O — higher, 896 s
- O=C(NCc1noc(C2CCCCC2)n1)c1coc(C2CC2)n1 — higher, 889 s
- CCOc1ccc(S(=O)(=O)N2CCC(C(=O)NCc3csc(-c4ccccc4)n3)CC2)cc1 — higher, 978 s
- O=C(NCc1ccc2c(c1)OCO2)c1ccc(-c2cccs2)nc1 — higher, 863 s
- O=C(NC1CCCCCC1)C1CCN(Cc2cc3ccccc3n2Cc2ccccc2)CC1 — higher, 845 s
- CSc1nnc(-c2cccc(S(=O)(=O)N3CCCC3)c2)o1 — higher, 770 s
- COc1cc(C)c(C)cc1S(=O)(=O)Nc1ccc2c(c1)N(S(C)(=O)=O)CCC2 — higher, 844 s
- COc1ccccc1-c1nc2cnccn2c1NCCC(=O)Nc1ccc2c(c1)OCCO2 — higher, 672 s
- Cc1ccc(C)c(NC(=O)C2CCCN(S(=O)(=O)c3c[nH]c(C(=O)N4CCCCCC4)c3)C2)c1 (configuration not stated) — higher, 923 s
- O=C(Nc1cccc2nsnc12)C1CCN(c2ccc(-c3ccc(F)cc3)nn2)CC1 — higher, 681 s
- COc1ccc(NC(=O)N2CCCC2c2nc(-c3cccc(Cl)c3)no2)c(OC)c1 (configuration not stated) — higher, 1070 s
- Cn1nccc1C(=O)N1CCc2c([nH]c3ccccc23)C1c1ccc(F)cc1 (configuration not stated) — higher, 995 s
- Cc1ccc(CC(=O)Nc2ccc3c(c2)CCC(=O)N3)cc1 — higher, 708 s
- O=C(CC1CCN(C(=O)c2cc3cc(Cl)ccc3[nH]2)CC1)NCc1ccco1 — higher, 802 s
